{
  "source": "paper PMC4013123",
  "about": "(PLoS ONE, 2014)",
  "key": {"D10-MPH": {"biological_target": "D10-MPH (Ochrobactrum sp. M231, UniProt B2Z3X1)", "sequence (B2Z3X1 entry or part of it)": "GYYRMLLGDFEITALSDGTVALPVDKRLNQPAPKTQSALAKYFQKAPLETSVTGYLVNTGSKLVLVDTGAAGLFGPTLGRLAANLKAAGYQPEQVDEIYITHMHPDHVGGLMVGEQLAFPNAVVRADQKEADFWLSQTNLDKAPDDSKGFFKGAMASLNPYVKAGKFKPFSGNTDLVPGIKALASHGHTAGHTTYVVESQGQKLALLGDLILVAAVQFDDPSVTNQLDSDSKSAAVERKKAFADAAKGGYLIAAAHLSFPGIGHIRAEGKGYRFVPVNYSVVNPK", "source_text": "steady-state kinetics of purified enzyme (standard assay by reference) on D10-MPH"}, "[1]": {"biological_target": "WT MPH (methyl parathion hydrolase) (Ochrobactrum sp. M231, UniProt B2Z3X1)", "sequence (B2Z3X1 entry or part of it)": "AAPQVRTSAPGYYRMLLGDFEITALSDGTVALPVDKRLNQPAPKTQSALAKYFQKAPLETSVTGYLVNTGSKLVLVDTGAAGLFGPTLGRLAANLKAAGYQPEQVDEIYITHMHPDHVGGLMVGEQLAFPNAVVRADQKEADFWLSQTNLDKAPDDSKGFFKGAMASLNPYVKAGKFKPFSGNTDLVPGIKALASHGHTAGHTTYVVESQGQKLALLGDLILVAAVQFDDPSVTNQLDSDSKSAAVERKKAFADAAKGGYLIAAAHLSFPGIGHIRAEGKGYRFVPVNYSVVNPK", "source_text": "steady-state kinetics of purified enzyme (standard assay by reference) on WT MPH (methyl parathion hydrolase)"}},
  "data": [
    {"smiles": "COP(=S)(OC)Oc1ccc([N+](=O)[O-])cc1", "note": "[methyl parathion]", "values": [
      {"measurement": "Km", "setting": "D10-MPH", "value": "86.9 ± 4.01", "unit": "µM"},
      {"measurement": "Km", "setting": "[1]", "value": "73.2 ± 4.7", "unit": "µM"}
    ]}
  ]
}
